Literature values as cited in US20150328159A1, “Composition” (Innovata Limited, priority 2009, published 2015).

solubility in organic solvents: insoluble
Substance: hyaluronic acid
